Reference: ChEMBL document CHEMBL5154935, “Design, Synthesis, and Biological Evaluation of Novel Evodiamine Derivatives as Potential Antihepatocellular Carcinoma Agents” (J Med Chem, 2022)
Active and inactive are the calls of the source. The rule behind the calls is not given here.

Experiments:
SK-HEP1 [1] = test: Antiproliferative activity against human SK-HEP1 cells treated for 72 hrs by MTT assay; assay type: functional, cell-based; settings: SK-HEP1, 72 h
HepG2 = test: Antiproliferative activity against human HepG2 cells treated for 72 hrs by MTT assay; assay type: functional, cell-based; settings: HepG2, 72 h
Huh-7 [2] = test: Induction of apoptosis in human Huh-7 cells assessed as necrotic cells at 80 nM incubated for 24 hrs by annexin V-FITC/PI staining flow cytometry (reference value: 1.08 %); assay type: functional
[3] = biological target: T1, DNA topoisomerase 1 (Homo sapiens) (UniProt P11387); test: Inhibition of Top1 (unknown origin) assessed as inhibition of relaxation of supercoiled pBR322 plasmid DNA at 12.5 uM incubated for 25 mins by ethidium bromide staining based agarose gel electrophoresis analysis relative to control
T1 sequence (whole entry): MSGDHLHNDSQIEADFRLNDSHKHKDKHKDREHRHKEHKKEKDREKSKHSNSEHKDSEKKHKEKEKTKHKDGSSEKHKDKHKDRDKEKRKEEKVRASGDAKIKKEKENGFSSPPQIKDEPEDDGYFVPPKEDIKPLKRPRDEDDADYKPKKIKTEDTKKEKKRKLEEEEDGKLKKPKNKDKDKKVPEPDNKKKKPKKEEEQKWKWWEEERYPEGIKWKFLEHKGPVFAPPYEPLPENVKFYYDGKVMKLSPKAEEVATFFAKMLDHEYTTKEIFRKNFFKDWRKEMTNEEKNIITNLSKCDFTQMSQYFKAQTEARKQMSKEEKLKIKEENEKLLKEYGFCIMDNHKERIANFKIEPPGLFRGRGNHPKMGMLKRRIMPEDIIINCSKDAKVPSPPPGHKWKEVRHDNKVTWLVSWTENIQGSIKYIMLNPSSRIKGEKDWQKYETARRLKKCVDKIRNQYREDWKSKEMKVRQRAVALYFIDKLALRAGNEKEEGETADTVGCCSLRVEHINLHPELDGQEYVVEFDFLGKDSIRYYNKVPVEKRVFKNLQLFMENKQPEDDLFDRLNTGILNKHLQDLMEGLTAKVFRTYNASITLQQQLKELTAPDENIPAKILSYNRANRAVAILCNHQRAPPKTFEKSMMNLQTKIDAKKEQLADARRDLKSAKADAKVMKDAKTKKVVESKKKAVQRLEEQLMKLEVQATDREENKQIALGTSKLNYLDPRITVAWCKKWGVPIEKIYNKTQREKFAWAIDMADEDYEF

HCCLM9 = test: Antiproliferative activity against human HCCLM9 cells treated for 72 hrs by MTT assay; assay type: functional, cell-based; settings: HCCLM9, 72 h
SK-HEP1 [4] = test: Induction of cell cycle arrest in human SK-Hep1 cells assessed as accumulation at G1 phase at 80 nM treated for 24 hrs by PI staining based flow cytometry (reference value: 58.47 %); assay type: functional
Huh-7 [5] = test: Induction of cell cycle arrest in human Huh-7 cells assessed as accumulation at S phase at 80 nM treated for 24 hrs by PI staining based flow cytometry (reference value: 23.33 %); assay type: functional
SK-HEP1 [6] = test: Induction of apoptosis in human SK-Hep1 cells assessed as early apoptotic cells at 80 nM incubated for 24 hrs by annexin V-FITC/PI staining flow cytometry (reference value: 0.30 %); assay type: functional
[7] = Induction of apoptosis in rat HSC-T6 cells assessed as viable cells at 80 nM pretreated with TGFbeta-1 for 1 day followed by compound addition and measured after 24 hrs by flow cytometry (reference value: 97.5 %); assay type: functional; settings: read-out: Activity
SK-HEP1 [8] = test: Induction of cell cycle arrest in human SK-Hep1 cells assessed as accumulation at G2 phase at 80 nM treated for 24 hrs by PI staining based flow cytometry (reference value: 16.55 %); assay type: functional
SK-HEP1 [9] = test: Induction of apoptosis in human SK-Hep1 cells assessed as viable cells at 80 nM incubated for 24 hrs by annexin V-FITC/PI staining flow cytometry (reference value: 97.8 %); assay type: functional; settings: read-out: Activity
[10] = Induction of apoptosis in rat HSC-T6 cells assessed as early apoptotic cells at 80 nM pretreated with TGFbeta-1 for 1 day followed by compound addition and measured after 24 hrs by flow cytometry (reference value: 0.17 %); assay type: functional
SK-HEP1 [11] = test: Induction of apoptosis in human SK-Hep1 cells assessed as late apoptotic cells at 80 nM incubated for 24 hrs by annexin V-FITC/PI staining flow cytometry (reference value: 1.13 %); assay type: functional
[12] = Antiproliferative activity against human L02 cells treated for 72 hrs by MTT assay; assay type: toxicity, cell-based
Huh-7 [13] = test: Induction of cell cycle arrest in human Huh-7 cells assessed as accumulation at G2 phase at 80 nM treated for 24 hrs by PI staining based flow cytometry (reference value: 15.90 %); assay type: functional
[14] = biological target: DNA topoisomerase 2-alpha (Homo sapiens) (UniProt P11388); test: Inhibition of human Top2-alpha expressed in baculovirus assessed as inhibition of relaxation of supercoiled pBR322 plasmid DNA at 100 uM incubated for 30 mins in presence of ATP by ethidium bromide staining based agarose gel electrophoresis analysis relative to control
Huh-7 [15] = test: Antiproliferative activity against human Huh-7 cells treated for 72 hrs by MTT assay; assay type: functional, cell-based; settings: Huh-7, 72 h
SK-HEP1 [16] = test: Induction of apoptosis in human SK-Hep1 cells assessed as necrotic cells at 80 nM incubated for 24 hrs by annexin V-FITC/PI staining flow cytometry (reference value: 0.73 %); assay type: functional
Huh-7 [17] = test: Induction of apoptosis in human Huh-7 cells assessed as early apoptotic cells at 80 nM incubated for 24 hrs by annexin V-FITC/PI staining flow cytometry (reference value: 0.33 %); assay type: functional
[18] = Toxicity in BALB/c mouse xenografted with human Huh-7 cells assessed as reduction in WBC levels at 10 mg/kg, ip qd for 11 days and measured on day 11; assay type: organism-based; settings: in vivo, 264 h, time 11 day
Huh-7 [19] = test: Induction of apoptosis in human Huh-7 cells assessed as viable cells at 80 nM incubated for 24 hrs by annexin V-FITC/PI staining flow cytometry (reference value: 97.3 %); assay type: functional; settings: read-out: Activity
SMMC-7721 = test: Antiproliferative activity against human SMMC-7721 cells treated for 72 hrs by MTT assay; assay type: functional, cell-based; settings: SMMC-7721, 72 h
Huh-7 [20] = test: Induction of cell cycle arrest in human Huh-7 cells assessed as accumulation at G1 phase at 80 nM treated for 24 hrs by PI staining based flow cytometry (reference value: 60.77 %); assay type: functional
[21] = Induction of apoptosis in rat HSC-T6 cells assessed as late apoptotic cells at 80 nM pretreated with TGFbeta-1 for 1 day followed by compound addition and measured after 24 hrs by flow cytometry (reference value: 1.76 %); assay type: functional
[22] = Induction of apoptosis in rat HSC-T6 cells assessed as necrotic cells at 80 nM pretreated with TGFbeta-1 for 1 day followed by compound addition and measured after 24 hrs by flow cytometry (reference value: 0.56 %); assay type: functional
[23] = biological target: T1, DNA topoisomerase 1 (Homo sapiens); test: Inhibition of Top1 (unknown origin) assessed as inhibition of relaxation of supercoiled pBR322 plasmid DNA at 50 uM incubated for 25 mins by ethidium bromide staining based agarose gel electrophoresis analysis relative to control
SK-HEP1 [24] = test: Induction of cell cycle arrest in human SK-Hep1 cells assessed as accumulation at S phase at 80 nM treated for 24 hrs by PI staining based flow cytometry (reference value: 24.98 %); assay type: functional
Huh-7 [25] = test: Induction of apoptosis in human Huh-7 cells assessed as late apoptotic cells at 80 nM incubated for 24 hrs by annexin V-FITC/PI staining flow cytometry (reference value: 1.33 %); assay type: functional
HSC-T6 = test: Antiproliferative activity against TGF-beta-1-stimulated rat HSC-T6 cells assessed as suppression of cell proliferation at 6.67 to 60 uM preincubated with TGFbeta-1 for 1 day followed by compound addition and measured after 48 hrs; assay type: functional, cell-based; settings: dose 6.67-60 µM
Huh-7 [26] = test: Antitumor activity against human Huh-7 cells xenografted in BALB/c mouse assessed as tumor growth inhibition at 10 mg/kg, ip qd for 11 days and measured every 2 days relative to control; assay type: functional; settings: Huh-7, 264 h, time 11 day, read-out: TGI
[27] = Toxicity in BALB/c mouse xenografted with human Huh-7 cells assessed as histopathological change in liver at 10 mg/kg, ip qd for 11 days and measured after 12 days by hematoxylin and eosin staining based assay; assay type: organism-based; settings: in vivo, 288 h, time 12 day
[28] = Toxicity in BALB/c mouse xenografted with human Huh-7 cells assessed as histopathological change in heart at 10 mg/kg, ip qd for 11 days and measured after 12 days by hematoxylin and eosin staining based assay; assay type: organism-based; settings: in vivo, 288 h, time 12 day
[29] = Toxicity in BALB/c mouse xenografted with human Huh-7 cells assessed as histopathological change in lung at 10 mg/kg, ip qd for 11 days and measured after 12 days by hematoxylin and eosin staining based assay; assay type: organism-based; settings: in vivo, 288 h, time 12 day
[30] = Toxicity in BALB/c mouse xenografted with human Huh-7 cells assessed as histopathological change in kidney at 10 mg/kg, ip qd for 11 days and measured after 12 days by hematoxylin and eosin staining based assay; assay type: organism-based; settings: in vivo, 288 h, time 12 day
Huh-7 [31] = test: Antitumor activity against human Huh-7 cells xenografted in BALB/c mouse assessed as reduction in neo-vascularisation at 10 mg/kg, ip qd for 11 days and measured after 12 days by hematoxylin and eosin staining based assay; assay type: functional, organism-based; settings: time 12.0 day
[32] = Toxicity in BALB/c mouse xenografted with human Huh-7 cells assessed as histopathological change in spleen at 10 mg/kg, ip qd for 11 days and measured after 12 days by hematoxylin and eosin staining based assay; assay type: organism-based; settings: in vivo, 288 h, time 12 day

Sequence of DNA topoisomerase 2-alpha (Homo sapiens) (P11388 whole entry): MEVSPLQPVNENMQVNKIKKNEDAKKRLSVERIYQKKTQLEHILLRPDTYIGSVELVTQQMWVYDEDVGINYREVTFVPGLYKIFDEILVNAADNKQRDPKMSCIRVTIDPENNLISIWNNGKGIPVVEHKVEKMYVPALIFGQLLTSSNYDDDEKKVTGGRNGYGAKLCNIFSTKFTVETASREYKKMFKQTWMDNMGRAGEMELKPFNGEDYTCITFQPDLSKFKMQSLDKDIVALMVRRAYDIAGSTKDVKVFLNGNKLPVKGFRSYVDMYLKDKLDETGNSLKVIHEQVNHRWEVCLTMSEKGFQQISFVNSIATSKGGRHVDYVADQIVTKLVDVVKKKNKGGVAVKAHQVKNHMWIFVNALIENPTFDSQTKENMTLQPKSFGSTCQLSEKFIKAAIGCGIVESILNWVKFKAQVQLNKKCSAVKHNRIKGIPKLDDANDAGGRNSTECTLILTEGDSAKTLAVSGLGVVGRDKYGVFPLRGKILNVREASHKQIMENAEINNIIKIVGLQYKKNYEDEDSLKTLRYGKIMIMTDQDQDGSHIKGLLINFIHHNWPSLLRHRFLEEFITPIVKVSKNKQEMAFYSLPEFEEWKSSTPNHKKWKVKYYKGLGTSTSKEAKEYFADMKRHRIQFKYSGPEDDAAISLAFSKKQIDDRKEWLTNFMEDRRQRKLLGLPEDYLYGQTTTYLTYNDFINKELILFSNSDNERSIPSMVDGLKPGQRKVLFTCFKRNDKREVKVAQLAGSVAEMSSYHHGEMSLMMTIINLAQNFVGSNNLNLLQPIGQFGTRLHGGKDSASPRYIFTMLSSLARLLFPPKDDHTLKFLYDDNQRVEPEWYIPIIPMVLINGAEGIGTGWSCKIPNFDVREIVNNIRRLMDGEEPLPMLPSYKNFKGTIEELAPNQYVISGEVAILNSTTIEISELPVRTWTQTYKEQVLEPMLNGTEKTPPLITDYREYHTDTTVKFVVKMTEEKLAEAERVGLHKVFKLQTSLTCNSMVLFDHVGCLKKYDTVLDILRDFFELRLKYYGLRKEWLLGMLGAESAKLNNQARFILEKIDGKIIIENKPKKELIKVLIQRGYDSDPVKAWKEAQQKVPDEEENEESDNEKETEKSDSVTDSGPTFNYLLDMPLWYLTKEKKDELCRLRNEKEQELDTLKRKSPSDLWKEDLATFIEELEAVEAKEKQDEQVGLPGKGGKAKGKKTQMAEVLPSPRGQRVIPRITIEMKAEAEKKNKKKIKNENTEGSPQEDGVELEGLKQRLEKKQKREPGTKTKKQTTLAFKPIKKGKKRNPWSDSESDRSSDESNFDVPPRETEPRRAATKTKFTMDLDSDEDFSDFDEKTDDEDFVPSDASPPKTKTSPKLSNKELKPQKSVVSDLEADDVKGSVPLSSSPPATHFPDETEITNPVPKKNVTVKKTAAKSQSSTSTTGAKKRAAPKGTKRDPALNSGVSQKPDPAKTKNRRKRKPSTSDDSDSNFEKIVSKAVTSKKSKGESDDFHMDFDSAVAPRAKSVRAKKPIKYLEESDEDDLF

IC50 (SK-HEP1 [1])	IC50 (HepG2)	IC50 (HCCLM9)	IC50 (Huh-7 [15])	IC50 (SMMC-7721)	SMILES	Activity (Huh-7 [2])	Activity (SK-HEP1 [4])	Activity (Huh-7 [5])	Activity (SK-HEP1 [6])	viability at 0.08 µM [7]	Activity (SK-HEP1 [8])	viability at 0.08 µM (SK-HEP1 [9])	Activity [10]	Activity (SK-HEP1 [11])	IC50 at 72 h [12]	Activity (Huh-7 [13])	Activity (SK-HEP1 [16])	Activity (Huh-7 [17])	viability at 0.08 µM (Huh-7 [19])	Activity (Huh-7 [20])	other results
2.92 µM	2.67 µM	9.27 µM	2.18 µM	3.04 µM	CN1c2ccccc2C(=O)N2CCc3c([nH]c4ccccc34)C21 (stereo not given)	1.64%	60.43%	23.42%	0.27%	94.4%	3.57%	85%	0.27%	2.79%	3.95 µM	15.93%	1.01%	0.57%	92%	60.65%	inhibition [3]: 3.67%; inhibition [14]: 48%; Activity [18]: Toxic; Activity [21]: 4.44%; Activity [22]: 0.9%; inhibition [23]: 63.4%; Activity (SK-HEP1 [24]): 36%; Activity (Huh-7 [25]): 5.83%
1.98 µM	2.1 µM	3.15 µM	2.6 µM	2.37 µM	CNC(=O)c1cc(Oc2ccc(NC(=O)Nc3ccc(Cl)c(C(F)(F)F)c3)cc2)ccn1 [SORAFENIB]	1.18%	60.47%	37.84%	1.01%	91.5%	5.43%	94.1%	0.16%	3.5%	5.98 µM	9.16%	1.32%	0.23%	94.6%	53%	Activity (HSC-T6): Active; inhibition in vivo at 10 mg/kg (Huh-7 [26]): 46.3%; Activity [27]: Non-Toxic; Activity [28]: Non-Toxic; Activity [29]: Non-Toxic; Activity [30]: Non-Toxic; Activity [21]: 7.47%; Activity [22]: 0.85%; Activity (Huh-7 [31]): Active; Activity [32]: Non-Toxic; Activity (SK-HEP1 [24]): 34.1%; Activity (Huh-7 [25]): 3.94%
